From patent US20250326733A1, “A NEW ROUTE FOR SY[…] CHIRAL CANNABINOIDS FROM COUMARINS” (University of Florida Research Foundation, Inc., priority 2021, published 2025) come the findings set out here.

“Also recorded” adds a separate entry of the source.

Test [1] addresses T1, hCB1R (Homo sapiens, UniProt P21554). Briefly: Functional activity (agonism), TRUPATH assay of Gαiβ3γ9 protein activation. It is filed as cell-based. As to conditions: for Emax: mean ± SEM, n >= 3, NA = no observable agonism at concentrations up to 31.6 μM.
In test [2] the target is T2, hCB2R (Homo sapiens, UniProt P34972). Described as above. It is filed as cell-based. The conditions noted are these: for Emax: mean ± SEM, n >= 3.
The target of test [3] is T2, hCB2R. The test can be described thus: Binding affinity at human cannabinoid receptor 2. The conditions noted are these: for CB1/CB2: ratio of Ki hCB1R / hCB2R.
For test [4], the target named is T1, hCB1R. The test can be described thus: Binding affinity at human cannabinoid receptor 1.
Test [5] deals with T2, hCB2R. Briefly: Stimulation of [35S]GTPγS binding (native G protein activation). It is filed as biochemical. For orientation: GTPγS resists hydrolysis and so accumulates on activated G proteins.

As usually defined, the Ki is a measure of affinity in units of concentration, obtained from inhibition or displacement. Low values mean higher affinity, high ones lower affinity. As a reminder, the EC50 is the concentration that produces a half-maximal response. Higher therefore signals weaker potency.

T2 sequence (P34972 whole entry): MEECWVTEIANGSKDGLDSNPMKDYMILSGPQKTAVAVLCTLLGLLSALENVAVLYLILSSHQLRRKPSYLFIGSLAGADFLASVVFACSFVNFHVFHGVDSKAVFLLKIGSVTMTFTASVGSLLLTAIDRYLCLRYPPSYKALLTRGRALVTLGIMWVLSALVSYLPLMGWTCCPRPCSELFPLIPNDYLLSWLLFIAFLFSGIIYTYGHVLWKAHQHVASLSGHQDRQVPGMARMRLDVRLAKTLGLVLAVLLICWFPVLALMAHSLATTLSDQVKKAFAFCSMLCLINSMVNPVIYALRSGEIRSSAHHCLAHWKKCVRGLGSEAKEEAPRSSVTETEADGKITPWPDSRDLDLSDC
T1 sequence (P21554 whole entry): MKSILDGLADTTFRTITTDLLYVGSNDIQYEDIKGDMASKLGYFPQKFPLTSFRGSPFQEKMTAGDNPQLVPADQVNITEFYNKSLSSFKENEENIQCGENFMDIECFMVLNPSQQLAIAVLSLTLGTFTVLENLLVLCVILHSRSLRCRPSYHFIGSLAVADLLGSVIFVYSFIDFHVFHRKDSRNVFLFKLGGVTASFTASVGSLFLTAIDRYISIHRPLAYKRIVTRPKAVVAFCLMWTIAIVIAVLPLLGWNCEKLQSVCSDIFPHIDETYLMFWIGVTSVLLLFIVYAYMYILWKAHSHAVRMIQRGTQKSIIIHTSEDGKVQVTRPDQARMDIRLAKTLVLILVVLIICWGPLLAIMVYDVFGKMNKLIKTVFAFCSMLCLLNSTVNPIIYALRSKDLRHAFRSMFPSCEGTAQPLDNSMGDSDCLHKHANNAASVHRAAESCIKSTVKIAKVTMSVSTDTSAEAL

On to `C=C(C)[C@@H]1CCC(C)=C[C@H]1c1c(O)cc(CCCCC)cc1O` [CBD, cannabidiol, reference compound], for which the “agonism / efficacy (in words)” value on hCB1R [1] (hCB1R) and on hCB2R [2] (hCB2R) was “no efficacy” each time.

As to `CCCCCc1cc(O)c2c(c1)OC(C)(C)c1ccc(C)cc1-2` [CBN, cannabinol, reference compound], the Ki at hCB2R [3] was 138 nM; on hCB1R [4] (Ki (nM), hCB1R), 240 nM; at hCB1R [4] (pKi, hCB1R, one site, FIG. 5), 631 nM. At hCB2R [3], the CB1/CB2 is reported as 1.7.

Take `CCCCCCC(C)(C)c1cc(O)c2c(c1)OC(C)(C)c1ccc(C)c(CO)c1-2` [axCBN-3]: the Ki is 0.933 nM on hCB2R [3]; 0.661 nM on hCB1R [4] (Ki (nM), hCB1R); 0.398 nM on hCB1R [4] (pKiHi (high affinity site), hCB1R, two site binding model, FIG. 5). Further, the “affinity, fold higher than CBN” value is on record as about 134 fold at hCB2R [3] (hCB2R) and “approximately 360 fold” on hCB1R [4] (hCB1R). The “affinity (in words)” value at hCB2R [3] (hCB2R / CB2 receptor) and at hCB1R [4] (hCB1R / CB1 receptor) was “sub-nanomolar; also recorded: picomolar” in each case. Further, on hCB2R [3], the CB1/CB2 was 0.7. The “affinity, fold higher than CBN-DMH reported by Rhee, et al.” value at hCB1R [4] (hCB1R and hCB2R, comparator value from literature) is given as 5-10 fold. Moreover, the “pKiLo (low affinity site)” value at hCB1R [4] (hCB1R, two site binding model, FIG. 5) worked out at 7.3. For the same compound, on hCB2R [5] (greater at hCB2R than at hCB1R), the “potency to stimulate [35S]GTPγS binding, hCB2R versus hCB1R” value is on record as 2 fold. Also, the “efficacy in [35S]GTPγS binding (in words)” value at hCB2R [5] (relative to CBN) is reported as “increased efficacy over CBN”. Moreover, the concentration for a half-maximal effect (EC50) at hCB1R [1] is 0.0263 µM; at hCB2R [2], 3.47 nM. Further, the Emax came out at 0.0807 ± 0.0141 on hCB1R [1] (hCB1R) and 0.120 ± 0.0296 at hCB2R [2] (hCB2R).

In the case of `CCCCCCC(C)(C)c1cc(OC(C)=O)c2c(c1)OC(C)(C)c1ccc(C)c(COC(C)=O)c1-2` [axCBN-4], the Ki at hCB2R [3] was 195 nM; at hCB1R [4] (Ki (nM), hCB1R), 1200 nM. The “selectivity for hCB2R over hCB1R” value at hCB2R [3] amounted to 6.2 fold. Moreover, the CB1/CB2 on hCB2R [3] is 6.2. The “agonist activity (in words)” value at hCB2R [5] (hCB2R) is reported as “maintained agonist activity”. The values for the concentration giving a half-maximal response (EC50) on hCB1R [1] and at hCB2R [2] were 7.08 µM and 178 nM, respectively. The Emax at hCB1R [1] (hCB1R) is reported as 0.175 ± 0.0832; on hCB2R [2] (hCB2R) it was 0.120 ± 0.0294.
